From patent US8980885B2, “Plant disease controlling composition and method for controlling plant disease” (Sumitomo Chemical Company, Limited, priority 2008, dated 2015) come the findings set out here.

This assay deals with Sclerotinia sclerotiorum. Description: Controlling test against Sclerotinia sclerotiorum on cucumber by foliage spraying (Test Example 1). Format: in vivo. The following applies: single compound, 12° C., high humidity, 6 days. The procedure:
A sand loam was charged into a plastic pot, and cucumber (Sagamihanjiro) was seeded, and grown in a greenhouse for 12 days. A flowable of the compound I, and a flowable comprising any one of the compound II-i, the compound II-ii, the compound III, the compound IV, the compound V and the compound VI were diluted with water separately, and they were tank-mixed to prepare a tank mix solution having each predetermined concentration. The tank mix solution was subjected to foliage spraying so that it was sufficiently adhered to a leaf surface of the cucumber. After spraying, the plant was air-dried, and a PDA medium containing hyphae of Sclerotinia sclerotiorum was placed on the cucumber leaf surface. After seeding, this was placed under 12° C. and the high humidity for 6 days, the controlling effect was investigated. Separately, for comparison, each of the flowables was diluted with water to prepare a water-diluted solution of compounds I to VI having the predetermined concentration, and the similar controlling test was carried out. Further, for calculating a effective value, an onset area rate (ratio of onset area occupied in leaf area examined) in each treatment group was determined. The effective value was calculated by the Equation 1. […] A: Onset area rate of non-treated group B: Onset area rate of treated group In general, an effective value expected in treatment by mixing given two kinds of active ingredient compounds, i.e., an expected effective value is calculated by a Colby calculation equation of the Equation 2. E=X+Y−(X×Y)/100 “Equation 2” X: Effective value obtained by treatment with M ppm of the compound I Y: Effective value obtained by treatment with N ppm of the compound II, III or IV E: Effective value expected in treatment with M ppm of the compound I and N ppm of the compound II, III or IV (expected effective value) In addition, a synergistic effect was shown herein by a value calculated by the following Equation 3.

Turning to `CNC(=O)C(OC)c1ccccc1COc1cc(C)ccc1C` (racemic) [Compound II-ii], the Actual effective value is on record as 4% (0.2 ppm) and 31% (0.8 ppm).

For `CNC(=O)[C@H](OC)c1ccccc1COc1cc(C)ccc1C` [Compound II-i], the Actual effective value (0.2 ppm) stood at 14% and the Actual effective value (0.8 ppm) is recorded as 55%. On to `CNC(=O)/C(=N/OC)c1ccccc1COc1cc(C)ccc1C` [Compound III, (αE)-2-[(2,5-dimethylphenoxy)methyl]-α-(methoxyimino)-N-methylbenzeneacetamino, reference compound], for which the Actual effective value (0.2 ppm) was found to be 9%.

As to `CO/N=C(/C(=O)OC)c1ccccc1CO/N=C(\C)c1cccc(C(F)(F)F)c1` [Compound IV, methyl (E)-methoxyimino-{(E)-α-[1-(α,α,α-trifluoro-m-tolyl]ethylideneaminooxy)-o-tolyl)acetate, reference compound], the Actual effective value (0.2 ppm) was 28%. For the molecule `C=CCSC(=O)n1c(N)c(-c2ccccc2C)c(=O)n1C(C)C` [Compound I], the Actual effective value (3.1 ppm) is reported as 58%. Turning to `CO/C=C(/C(=O)OC)c1ccccc1Oc1cc(Oc2ccccc2C#N)ncn1` [Compound V, methyl (E)-2-{2-[6-(2-cyanophenoxy)pyrimidin-4-yloxy]phenyl}-3-methoxyacrylate, reference compound], the Actual effective value (0.2 ppm) was found to be 10%. Same read-out and setting: in the case of `COC(=O)N(OC)c1ccccc1COc1ccn(-c2ccc(Cl)cc2)n1` [Compound VI, methyl 2-[[1-(4-chlorophenyl)-1H-pyrazol-3-yloxymethyl]phenyl](N-methoxy)carbamate, reference compound] it was 29%.
